Measurements from patent publication US20070225245A1, “Viral vector driven mutant bacterial cytosine deaminase gene and uses thereof” (priority 1998, published 2007).
Values after ≈ are worked out from the molar mass of the structure shown.

Key:
[1] = tested on: BXPC-3 pancreatic tumor cells transfected with AdCMVCD; assay: MRS of 5-FC to 5-FU conversion in vitro; format: cell-based, human; settings: after 120 minutes; 3.8 mM 5-FC
Protocol: In vitro models of molecular chemotherapy were developed using the AdCMVCD cytosine deaminase toxin gene for the transfection of both human pancreatic and colon cancer cell lines (BXPC-3, WiDR, LS174T). […] In this study, an in vitro treatment model was proposed using 3×10^6 BXPC-3 pancreatic tumor cells transfected at a MOI of 100 with AdCMVCD. These cells were then examined by MRS at 0, 2, 6 and 24 hours for conversion of 5-FC to 5-FU.
Initial studies have shown the sensitivity of fluorine spectroscopy by its ability to detect 3.8 mM 5-FC when initially added to transfected BXPC-3 cells. […] However, after 120 minutes, the signal for 5-FC had dropped to 50% of its original intensity and the signal for 5-FU had increased to approximately 40% of the original 5-FC signal indicating conversion of 5-FC to 5-FU.

D54MG xenografts = assay: Subcutaneous human glioma xenograft model, tumor growth; format: in vivo, athymic nude mice
Protocol: (§1) Treatment was started at the time of established tumor growth (Day 0 equal to 14 days after tumor cell injection). Animals were infected i.t. with 1×10^8 TCID50 AdbCDwt or AdbCD-D314A on Days 0, 7, and 14, and then irradiated with 2 Gy on Days 4, 7 and 10. 5-FC was injected i.p. at 500 mg/kg on Days 0 to 4, 7 to 11, and 14 to 18. Data points represent the mean change in tumor surface area relative to Day 0 for each group of animals.
as §1, with “to 17” for “to 14”, “TCID50” for “TCID50 AdbCDwt or”, “and” for “and then”, “with 5” for “with 2”
To assess anti-tumor effects on established solid tumors, D54MG glioma cells (2×10^7) were injected s.c. into female athymic nude mice. Treatment was started 14 days post-tumor cell injection at the time of established tumor growth (tumors were 6-8 mm in diameter), noted as Day 0. […] Tumor size was monitored twice a week with Vernier calipers. Tumor surface area (length×width in mm^2) was calculated for each group of 10 mice and plotted as a percentage change over time relative to the mean size on Day 0 for each group.

ASPC-1 = assay: 5-FU cytotoxicity IC50; format: cell-based; settings: Homo sapiens, ASPC1
Protocol: (§2) A two factor analysis of variance with interaction was used to assess the effects of AdCMVLuc and AdCMVLuc+Fab-FGF2 MOI on RLU for each of the cell types individually. Due to the nonconstant variability, the logarithm of RLU was analyzed. This transformation stabilized the variability and normalized the errors. A three-factor with interaction analysis of variance was used to assess the effects of MOI, virus type and day on the number of cells per well. Due to the nonconstant variability, the logarithm of cells per well was analyzed. This transformation stabilized the variability and normalized the errors. Global comparisons were done at the 5% significance level and all pairwise comparisons were done at the 1% significance level. A nonlinear model was used to calculate the 5-FU IC50 for each cell type individually. The nonlinear model is given by: number of cells=trough+(peak-trough)/(1+dose/IC50). To assess the correlation of the number of cells per well with 5-FU production, a simple linear regression was done modeling the logarithm of cells per well as a function of percent 5-FU production for each cell and virus type combination individually. Kaplan-Meier estimates on the difference in time to tumor size doubling was used to assess the difference in tumor growth in animals treated with AdCMVCD or AdCMVCD+Fab′-FGF2 plus 5-FC and radiation.
(§3) To determine the relative sensitivity of several hepatobiliary cell lines to 5-FU, the concentration of 5-FU which inhibited cellular growth by 50% (IC50) was determined. Characterization of this information is particularly relevant to the CD/5-FC toxin gene prodrug system, as 5-FU is the toxic metabolic product of cytosine deaminase enzymatic conversion of 5-FC.

BXPC-3 = assay: 5-FU cytotoxicity IC50; format: cell-based; settings: Homo sapiens
Protocol: as §2, §3

CFPAC-1 = assay: 5-FU cytotoxicity IC50; format: cell-based; settings: Homo sapiens
Protocol: as §2, §3

SK-ChA-1 = assay: 5-FU cytotoxicity IC50; format: cell-based; settings: Homo sapiens
Protocol: as §2, §3

[2] = tested on: human cell lines derived from gliomas, prostate, colon, and pancreatic carcinomas; assay: 5-FU toxicity, panel of cell lines; format: cell-based; settings: range over 12 cell lines
Protocol: Tumor cells (5×10^4) were plated in 96 well plates and allowed to adhere overnight. Cells were then incubated continuously in the presence of increasing concentrations of 5-FU (0-200 μg/ml) and assayed for toxicity using an MTS assay (Promega, Madison Wis.) after 5-days. ICx values were calculated as previously described. U251MG glioma cells were as sensitive to 5-FU as LS174T and WiDR colon carcinoma cells, while D54MG, U87MG and U118MG glioma cells and AsPC-1 pancreatic carcinoma cells were 3-fold less sensitive (Table 2).

Structure (SMILES): Nc1nc(=O)[nH]cc1F [5-FC, 5-fluorocytosine]
- 5-FC MRS signal, % of its original intensity [1]: 50%
- mean time to tumor doubling (D54MG xenografts; 5-FC alone): 13 days
- mean time to tumor doubling (D54MG xenografts; 5-FC plus radiation (3×2 Gy)): 15 days

Structure (SMILES): O=c1[nH]cc(F)c(=O)[nH]1 [5-FU, 5-fluorouracil]
- IC50 (ASPC-1): 0.635 µg/mL
- IC50 (BXPC-3): 0.134 µg/mL
- IC50 (CFPAC-1): 0.089 µg/mL
- IC50 (SK-ChA-1): 0.115 µg/mL
- 5-FU MRS signal, % of the original 5-FC signal [1]: approximately 40%
- IC50 [2]: 0.04 to 4.97 µg/mL (≈ 0.308 to 38.2 µM)
